Data as given in PubChem BioAssay AID2060903 (Molecular Pharmacology Branch, DTP, NCI, 2025).
Each block holds one compound with its values, some of them ahead of it.

Test system: 377384-186-R-J1-PDC complex spheroid viability
Experiment: Anticancer human tumor 377384-186-R-J1-PDC patient-derived pancreatic carcinoma cell line growth inhibition [RAS]
Conditions: for viability, T/C: stronger effect = lower value
How it was run: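 Tumour cells grown as complex spheroids with HUVEC endothelial cells and mesenchymal stem cells, treated with RAS pathway inhibitor combinations. Each agent spans half-log steps from near clinical Cmax, or 10 microM where Cmax is unknown.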

[1] = curve of first compound, second compound 0.000949 µM
[2] = curve of first compound, second compound 0.003 µM
[3] = curve of first compound, second compound 0.00949 µM
[4] = curve of first compound, second compound 0.03 µM
[5] = curve of first compound, second compound 0.0949 µM
[6] = curve of first compound, second compound 0.3 µM
[7] = second compound 0.000949 µM, first compound 0.0316 µM
[8] = second compound 0.000949 µM, first compound 0.1 µM
[9] = second compound 0.000949 µM, first compound 0.316 µM
[10] = second compound 0.000949 µM, first compound 1 µM
[11] = second compound 0.003 µM, first compound 0.0316 µM
[12] = second compound 0.003 µM, first compound 0.1 µM
[13] = second compound 0.003 µM, first compound 0.316 µM
[14] = second compound 0.003 µM, first compound 1 µM
[15] = second compound 0.00949 µM, first compound 0.0316 µM
[16] = second compound 0.00949 µM, first compound 0.1 µM
[17] = second compound 0.00949 µM, first compound 0.316 µM
[18] = second compound 0.00949 µM, first compound 1 µM
[19] = second compound 0.03 µM, first compound 0.0316 µM
[20] = second compound 0.03 µM, first compound 0.1 µM
[21] = second compound 0.03 µM, first compound 0.316 µM
[22] = second compound 0.03 µM, first compound 1 µM
[23] = second compound 0.0949 µM, first compound 0.0316 µM
[24] = second compound 0.0949 µM, first compound 0.1 µM
[25] = second compound 0.0949 µM, first compound 0.316 µM
[26] = second compound 0.0949 µM, first compound 1 µM
[27] = second compound 0.3 µM, first compound 0.0316 µM
[28] = second compound 0.3 µM, first compound 0.1 µM
[29] = second compound 0.3 µM, first compound 0.316 µM
[30] = second compound 0.3 µM, first compound 1 µM
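Also: spheroids exposed to compounds for seven days before readout.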

IC50 [1]: < 3.16 nM | IC50 [2]: < 3.16 nM | IC50 [3]: < 3.16 nM | IC50 [4]: < 3.16 nM | IC50 [5]: < 3.16 nM | IC50 [6]: < 3.16 nM
SMILES: C=CC(=O)Nc1cc(Nc2nccc(-c3cn(C)c4ccccc34)n2)c(OC)cc1N(C)CCN(C)C + CCn1c(-c2cc(N3CCN(C)CC3)cnc2C(C)OC)c2c3cc(ccc31)-c1csc(n1)CC(NC(=O)C1CC1C)C(=O)N1CCCC(N1)C(=O)OCC(C)(C)C2
viability, T/C (second compound 0.000949 µM, first compound 0.00316 µM): 30% | viability, T/C (second compound 0.000949 µM, first compound 0.01 µM): 45% | viability, T/C [7]: 32.3% | viability, T/C [8]: 27.5% | viability, T/C [9]: 12.1% | viability, T/C [10]: 4.35% | viability, T/C (second compound 0.003 µM, first compound 0.00316 µM): 17.5% | viability, T/C (second compound 0.003 µM, first compound 0.01 µM): 17.3% | viability, T/C [11]: 11.2% | viability, T/C [12]: 4.88% | viability, T/C [13]: 2.22% | viability, T/C [14]: 1.8% | viability, T/C (second compound 0.00949 µM, first compound 0.00316 µM): 4.04% | viability, T/C (second compound 0.00949 µM, first compound 0.01 µM): 11% | viability, T/C [15]: 3.16% | viability, T/C [16]: 3.12% | viability, T/C [17]: 1.55% | viability, T/C [18]: 1.78% | viability, T/C (second compound 0.03 µM, first compound 0.00316 µM): 2.43% | viability, T/C (second compound 0.03 µM, first compound 0.01 µM): 1.94% | viability, T/C [19]: 1.75% | viability, T/C [20]: 2.15% | viability, T/C [21]: 2.02% | viability, T/C [22]: 1.52% | viability, T/C (second compound 0.0949 µM, first compound 0.00316 µM): 2.3% | viability, T/C (second compound 0.0949 µM, first compound 0.01 µM): 1.82% | viability, T/C [23]: 1.99% | viability, T/C [24]: 2.1% | viability, T/C [25]: 1.5% | viability, T/C [26]: 0.91% | viability, T/C (second compound 0.3 µM, first compound 0.00316 µM): 2.2% | viability, T/C (second compound 0.3 µM, first compound 0.01 µM): 1.68% | viability, T/C [27]: 1.82% | viability, T/C [28]: 1.46% | viability, T/C [29]: 1.28% | viability, T/C [30]: 0.91%

IC50 [1]: < 31.6 nM | IC50 [2]: < 31.6 nM | IC50 [3]: < 31.6 nM | IC50 [4]: < 31.6 nM | IC50 [5]: < 31.6 nM | IC50 [6]: < 31.6 nM
SMILES: CC(=O)OC12COC1CC(O)C1(C)C(=O)C(O)C3=C(C)C(OC(=O)C(O)C(NC(=O)OC(C)(C)C)c4ccccc4)CC(O)(C(OC(=O)c4ccccc4)C21)C3(C)C (stereo unspecified) + CCn1c(-c2cccnc2C(C)OC)c2c3cc(ccc31)N1CCOC(CC(NC(=O)C(C(C)C)N(C)C(=O)C3(F)CCN(C(=O)C#CC(C)(C)N(C)C)CC3)C(=O)N3CCCC(N3)C(=O)OCC(C)(C)C2)C1
viability, T/C [7]: 10.2% | viability, T/C [8]: 10.2% | viability, T/C [9]: 11% | viability, T/C [10]: 14.1% | viability, T/C (second compound 0.000949 µM, first compound 3.16 µM): 14.5% | viability, T/C (second compound 0.000949 µM, first compound 10 µM): 15.6% | viability, T/C [11]: 11.1% | viability, T/C [12]: 15.1% | viability, T/C [13]: 11% | viability, T/C [14]: 12.9% | viability, T/C (second compound 0.003 µM, first compound 3.16 µM): 14.7% | viability, T/C (second compound 0.003 µM, first compound 10 µM): 15.9% | viability, T/C [15]: 10.5% | viability, T/C [16]: 11.6% | viability, T/C [17]: 12.5% | viability, T/C [18]: 12% | viability, T/C (second compound 0.00949 µM, first compound 3.16 µM): 13.7% | viability, T/C (second compound 0.00949 µM, first compound 10 µM): 14.4% | viability, T/C [19]: 9.38% | viability, T/C [20]: 11.6% | viability, T/C [21]: 12.8% | viability, T/C [22]: 12.5% | viability, T/C (second compound 0.03 µM, first compound 3.16 µM): 13.4% | viability, T/C (second compound 0.03 µM, first compound 10 µM): 15.4% | viability, T/C [23]: 9.14% | viability, T/C [24]: 10.3% | viability, T/C [25]: 12.3% | viability, T/C [26]: 12.8% | viability, T/C (second compound 0.0949 µM, first compound 3.16 µM): 13.1% | viability, T/C (second compound 0.0949 µM, first compound 10 µM): 12.8% | viability, T/C [27]: 6.36% | viability, T/C [28]: 8.8% | viability, T/C [29]: 9.95% | viability, T/C [30]: 11.7% | viability, T/C (second compound 0.3 µM, first compound 3.16 µM): 12.3% | viability, T/C (second compound 0.3 µM, first compound 10 µM): 12%

IC50 (compound alone, run of 09/09/2024): > 1000 nM | IC50 (curve of compound): > 1000 nM
SMILES: C=CC(=O)N1CCN(c2nc(OCC3CCCN3C)nc3c(F)c(-c4nc(N)cc(C)c4C(F)(F)F)c(Cl)cc23)C(C)C1 (stereo unspecified)
viability, T/C (compound 0.00316 µM): 96.1% [middle of 12 runs] | viability, T/C (compound 0.0316 µM): 95.5% [middle of 12 runs] | viability, T/C (compound 1 µM): 96.5% [middle of 12 runs]

IC50 [1]: 2.42 nM | IC50 [2]: 2 nM | IC50 [3]: 2 nM | IC50 [4]: 1.53 nM | IC50 [5]: < 0.949 nM | IC50 [6]: < 0.949 nM
SMILES: CCc1c2c(nc3ccc(O)cc13)-c1cc3c(c(=O)n1C2)COC(=O)[C@]3(O)CC + CCn1c(-c2cccnc2C(C)OC)c2c3cc(ccc31)N1CCOC(CC(NC(=O)C(C(C)C)N(C)C(=O)C3(F)CCN(C(=O)C#CC(C)(C)N(C)C)CC3)C(=O)N3CCCC(N3)C(=O)OCC(C)(C)C2)C1
viability, T/C (second compound 0.000949 µM, first compound 0.000949 µM): 65.9% | viability, T/C (second compound 0.000949 µM, first compound 0.003 µM): 46.6% | viability, T/C (second compound 0.000949 µM, first compound 0.00949 µM): 18.3% | viability, T/C (second compound 0.000949 µM, first compound 0.03 µM): 7.36% | viability, T/C (second compound 0.000949 µM, first compound 0.0949 µM): 3.93% | viability, T/C (second compound 0.000949 µM, first compound 0.3 µM): 1.53% | viability, T/C (second compound 0.003 µM, first compound 0.000949 µM): 71.5% | viability, T/C (second compound 0.003 µM, first compound 0.003 µM): 37.9% | viability, T/C (second compound 0.003 µM, first compound 0.00949 µM): 19.8% | viability, T/C (second compound 0.003 µM, first compound 0.03 µM): 6.9% | viability, T/C (second compound 0.003 µM, first compound 0.0949 µM): 3.65% | viability, T/C (second compound 0.003 µM, first compound 0.3 µM): 2.05% | viability, T/C (second compound 0.00949 µM, first compound 0.000949 µM): 75.7% | viability, T/C (second compound 0.00949 µM, first compound 0.003 µM): 35.7% | viability, T/C (second compound 0.00949 µM, first compound 0.00949 µM): 15.8% | viability, T/C (second compound 0.00949 µM, first compound 0.03 µM): 5.59% | viability, T/C (second compound 0.00949 µM, first compound 0.0949 µM): 2.54% | viability, T/C (second compound 0.00949 µM, first compound 0.3 µM): 1.72% | viability, T/C (second compound 0.03 µM, first compound 0.000949 µM): 61.3% | viability, T/C (second compound 0.03 µM, first compound 0.003 µM): 34.7% | viability, T/C (second compound 0.03 µM, first compound 0.00949 µM): 14.4% | viability, T/C (second compound 0.03 µM, first compound 0.03 µM): 8.65% | viability, T/C (second compound 0.03 µM, first compound 0.0949 µM): 3.55% | viability, T/C (second compound 0.03 µM, first compound 0.3 µM): 1.17% | viability, T/C (second compound 0.0949 µM, first compound 0.000949 µM): 49.1% | viability, T/C (second compound 0.0949 µM, first compound 0.003 µM): 34.9% | viability, T/C (second compound 0.0949 µM, first compound 0.00949 µM): 14.8% | viability, T/C (second compound 0.0949 µM, first compound 0.03 µM): 5.24% | viability, T/C (second compound 0.0949 µM, first compound 0.0949 µM): 3.02% | viability, T/C (second compound 0.0949 µM, first compound 0.3 µM): 1.67% | viability, T/C (second compound 0.3 µM, first compound 0.000949 µM): 45.4% | viability, T/C (second compound 0.3 µM, first compound 0.003 µM): 30.3% | viability, T/C (second compound 0.3 µM, first compound 0.00949 µM): 7.93% | viability, T/C (second compound 0.3 µM, first compound 0.03 µM): 4.05% | viability, T/C (second compound 0.3 µM, first compound 0.0949 µM): 2.71% | viability, T/C (second compound 0.3 µM, first compound 0.3 µM): 1.08%
